Results on nine compounds are retold here after US20180030108A1, “NOVEL VOLTAGE-DEPENDENT ION CHANNEL FUSIONS AND METHOD OF USE THEREOF” (UNIVERSITE DE BORDEAUX, priority 2015, published 2018).

One experiment concerns the target T1, TRPV4-Luc/YFP-CaM (Homo sapiens, UniProt Q9HBA0).
T1 construct: expressed in transfected cells; host or cells: HEK293T
Description: Intermolecular TRPV4-Luc/YFP-CaM BRET test in HEK293T cells. It is filed as cell-based. The protocol:
An intermolecular TRPV4 BRET probe where the RLuc was fused to the TRPV4 in C-terminal and YFP was fused to the N-terminus part of Calmodulin. Kinetic (FIG. 14A) and dose response curve (FIG. 14B) of the effect of the TRPV4 agonist GSK1016790A on HEK293T cells expressing the TRPV4-Luc/YFP-CaM constructs were obtained. In FIG. 14A, cells were activated with 1 μM of agonist at the time indicated with an arrow. In FIG. 14B, the test was done in presence (square) or absence of the TRPV inhibitor Ruthenium Red (10 μM).
In general terms: BRET reads energy transfer from a luciferase to a nearby fluorophore.

The target in experiment [1] is TRPV1-Luc (human; Renilla) (UniProt Q8NER1). Briefly: intermolecular BRET kinetics in living HEK293T cells co-expressing TRPV1-Luc and YFP-CaM, after capsaicin injection.
TRPV1-Luc (human; Renilla), sequence (Q8NER1 whole entry): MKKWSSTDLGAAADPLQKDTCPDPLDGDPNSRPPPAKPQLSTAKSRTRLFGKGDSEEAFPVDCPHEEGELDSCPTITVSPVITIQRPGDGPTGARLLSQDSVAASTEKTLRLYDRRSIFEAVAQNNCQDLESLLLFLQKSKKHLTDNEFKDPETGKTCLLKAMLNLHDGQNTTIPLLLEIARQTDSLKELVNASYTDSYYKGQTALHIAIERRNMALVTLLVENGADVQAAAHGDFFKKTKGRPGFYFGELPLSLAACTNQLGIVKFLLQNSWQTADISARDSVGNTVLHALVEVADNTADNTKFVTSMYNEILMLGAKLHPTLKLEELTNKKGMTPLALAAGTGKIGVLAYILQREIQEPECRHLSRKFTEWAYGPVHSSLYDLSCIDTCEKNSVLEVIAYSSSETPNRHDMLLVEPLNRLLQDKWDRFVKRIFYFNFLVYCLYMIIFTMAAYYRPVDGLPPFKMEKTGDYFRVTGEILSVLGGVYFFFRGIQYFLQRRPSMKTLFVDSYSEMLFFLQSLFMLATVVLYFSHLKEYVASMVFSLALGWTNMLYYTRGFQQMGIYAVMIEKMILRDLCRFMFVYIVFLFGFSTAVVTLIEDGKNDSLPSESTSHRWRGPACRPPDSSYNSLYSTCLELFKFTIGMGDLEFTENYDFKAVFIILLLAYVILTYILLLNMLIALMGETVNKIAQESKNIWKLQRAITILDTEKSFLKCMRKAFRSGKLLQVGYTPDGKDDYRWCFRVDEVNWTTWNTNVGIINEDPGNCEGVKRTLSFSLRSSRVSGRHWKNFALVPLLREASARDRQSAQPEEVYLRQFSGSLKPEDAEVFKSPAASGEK
Another experiment concerns the target TRPV1-Luc/YFP-CaM (Homo sapiens, UniProt Q8NER1). To be noted: for effect on the CAPS dose response curve: cells pre-incubated with 1 μM inhibitor (FIG. 10).
For experiment [2], the system named is HEK293T cells transfected with an empty vector. Briefly: Intracellular calcium by Fura 2-AM, HEK293T cells transfected with an empty vector. It counts as cell-based, human. To be noted: 1 μM capsaicin, 37° C.
For experiment [3], the target named is T2, YFP-hTRPV1-rLuc (Homo sapiens, UniProt Q8NER1).
T2 construct: expressed in transfected cells; host or cells: HEK293T
T2 sequence (Q8NER1 whole entry): as above
Description: Intracellular calcium by Fura 2-AM, HEK293T cells expressing YFP-hTRPV1-rLuc. It is filed as cell-based. To be noted: 1 μM capsaicin, 37° C.

Experiment [4] has as its target T2, YFP-hTRPV1-rLuc. Briefly: Intramolecular YFP-hTRPV1-rLuc BRET probe in HEK293T cells. It is filed as cell-based. As to conditions: for effect on the CAPS dose response curve: cells pre-incubated with 1 μM inhibitor (FIG. 10); for effect on the capsaicin dose-response curve: pre-incubated 5 minutes before readings, 37° C. (FIG. 6).
The next experiment deals with T3, wild-type TRPV1 (Homo sapiens, UniProt Q8NER1).
T3 construct: expressed in transfected cells; host or cells: HEK293T
T3 sequence (Q8NER1 whole entry): as above
Description: Intracellular calcium by Fura 2-AM, HEK293T cells expressing wild-type TRPV1. It counts as cell-based. To be noted: 1 μM capsaicin, 37° C. (Calcium flux is commonly read through the fluorescence of an indicator in the cells.)

The target in a further experiment is YFP-hTRPV3-rLuc (Homo sapiens, UniProt Q8NET8). To be noted: 33° C., kinetic.
YFP-hTRPV3-rLuc, sequence (Q8NET8 whole entry): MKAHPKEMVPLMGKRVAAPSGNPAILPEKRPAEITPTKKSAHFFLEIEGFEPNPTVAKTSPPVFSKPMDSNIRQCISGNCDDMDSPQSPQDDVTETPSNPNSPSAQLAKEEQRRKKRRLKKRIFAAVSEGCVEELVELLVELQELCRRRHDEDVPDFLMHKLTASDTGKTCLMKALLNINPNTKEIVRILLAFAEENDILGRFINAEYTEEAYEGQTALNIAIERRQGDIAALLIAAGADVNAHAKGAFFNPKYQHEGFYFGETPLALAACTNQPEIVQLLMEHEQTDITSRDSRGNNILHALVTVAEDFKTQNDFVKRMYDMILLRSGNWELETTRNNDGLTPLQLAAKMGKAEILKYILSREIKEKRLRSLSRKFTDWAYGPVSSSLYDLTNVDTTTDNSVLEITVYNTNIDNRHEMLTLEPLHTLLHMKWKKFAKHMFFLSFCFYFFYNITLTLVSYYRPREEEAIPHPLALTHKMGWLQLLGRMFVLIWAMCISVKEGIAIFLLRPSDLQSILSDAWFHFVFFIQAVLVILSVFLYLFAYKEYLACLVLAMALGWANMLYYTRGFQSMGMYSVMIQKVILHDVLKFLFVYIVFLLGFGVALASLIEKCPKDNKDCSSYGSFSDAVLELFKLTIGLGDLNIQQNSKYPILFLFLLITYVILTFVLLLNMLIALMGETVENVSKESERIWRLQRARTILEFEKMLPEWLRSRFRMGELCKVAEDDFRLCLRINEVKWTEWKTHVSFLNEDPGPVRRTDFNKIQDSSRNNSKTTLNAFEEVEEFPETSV
Setting [5] is: temperature rise from 25° C. to 42° C.
Where [6] appears, read: HEK293T cells pre-incubated with the antagonist, heated.
Where [7] appears, read: HEK293T cells pre-incubated with the antagonist.

TRPV1-Luc/YFP-CaM, sequence (Q8NER1 whole entry): as the sequence (Q8NER1 whole entry) above
T1 sequence (Q9HBA0 whole entry): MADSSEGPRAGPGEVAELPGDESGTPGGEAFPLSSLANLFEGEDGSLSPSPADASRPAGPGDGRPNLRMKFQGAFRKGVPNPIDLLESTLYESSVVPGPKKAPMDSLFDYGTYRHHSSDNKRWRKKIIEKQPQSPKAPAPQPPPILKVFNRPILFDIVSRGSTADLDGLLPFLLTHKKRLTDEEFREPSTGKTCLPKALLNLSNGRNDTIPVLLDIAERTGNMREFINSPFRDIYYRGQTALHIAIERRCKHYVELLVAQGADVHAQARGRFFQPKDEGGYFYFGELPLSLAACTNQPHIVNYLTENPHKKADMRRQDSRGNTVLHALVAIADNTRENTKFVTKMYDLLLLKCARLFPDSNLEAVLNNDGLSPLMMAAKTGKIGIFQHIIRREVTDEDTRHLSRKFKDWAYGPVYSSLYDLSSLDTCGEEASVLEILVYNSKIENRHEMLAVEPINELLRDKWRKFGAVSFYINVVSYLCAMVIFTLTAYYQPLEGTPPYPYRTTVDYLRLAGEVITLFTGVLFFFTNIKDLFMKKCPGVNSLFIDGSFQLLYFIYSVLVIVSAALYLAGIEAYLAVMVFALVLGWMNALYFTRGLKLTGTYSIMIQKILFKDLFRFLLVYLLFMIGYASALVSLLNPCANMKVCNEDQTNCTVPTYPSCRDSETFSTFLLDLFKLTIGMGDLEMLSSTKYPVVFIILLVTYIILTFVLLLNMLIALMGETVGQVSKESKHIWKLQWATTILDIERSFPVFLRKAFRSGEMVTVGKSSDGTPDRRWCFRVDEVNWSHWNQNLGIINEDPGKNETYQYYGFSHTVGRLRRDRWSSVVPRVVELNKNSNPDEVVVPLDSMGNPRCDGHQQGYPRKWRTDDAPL

Usually EC50 stands for the midpoint of the concentration-response curve. The low end stands for a more potent agent, the high end for a less potent agent. Compound `CC(C)C[C@H](NC(=O)c1cc2ccccc2s1)C(=O)N1CCN(C(=O)[C@H](CO)NS(=O)(=O)c2ccc(Cl)cc2Cl)CC1` [GSK1016790A] showed an EC50 on TRPV4-Luc/YFP-CaM (control condition (absence of Ruthenium Red), log value) of 12.9 µM.

YFP-CaM (from UniProt P0DP23 1-149): in experiment [1], the time constant of the BRET increase after capsaicin was found to be 27 s.

On to `COc1cc(CNC(=O)CCCC/C=C/C(C)C)ccc1O` [capsaicin], for which the “time constant (Tau) of BRET increase” value at TRPV1-Luc/YFP-CaM (after CAPS injection) amounted to 27 s; on YFP-hTRPV1-rLuc [4] (after CAPS injection), 2 s. The “BRET over the basal signal following exposure” value at TRPV1-Luc/YFP-CaM (kinetic, HEK293T cells) was “robust increase of BRET”; at YFP-hTRPV1-rLuc [4] (kinetic, HEK293T cells), “robust increase of BRET”. Besides, the “effect of temperature rise on capsaicin dose response” value at TRPV1-Luc/YFP-CaM (setting [5]) and at YFP-hTRPV1-rLuc [4] (setting [5]) was “leftward shift of the power of capsaicin while the efficacy remained unchanged” each time. In addition, the “intracellular calcium (Fura 2, I340/I380)” value is “No calcium increase” in experiment [2]; “rapid and important increase of intracellular calcium” on YFP-hTRPV1-rLuc [3]; “rapid and important increase of intracellular calcium” on wild-type TRPV1.

Regarding `N.N.N.N.N.N.N.N.N.N.N.N.N.N.[Cl-].[Cl-].[Cl-].[Cl-].[Cl-].[Cl-].[O-2].[O-2].[Ru+3].[Ru+3].[Ru+4]` [Ruthenium Red], the “BRET increase induced by the TRPV4 agonist GSK1016790A” value at TRPV4-Luc/YFP-CaM (Ruthenium Red 10 μM) was “No BRET increase”.

On to `c1ccc(C2(c3ccccc3)CCCO2)cc1` [2,2-Diphenyltetrahydrofuran], for which, at YFP-hTRPV1-rLuc [4] (setting [6]), the “temperature at which BRET signal plateaued” value amounted to 52 °C. Besides, the “ratio of net BRET as initially measured at 29.5° C.” value at YFP-hTRPV1-rLuc [4] (setting [7]) turned out to be 0.93.

Take `CC(=O)Nc1nc2c(Oc3cc(-c4ccc(C(F)(F)F)cc4)ncn3)cccc2s1` [AMG517]: the “effect on the CAPS dose response curve” value on TRPV1-Luc/YFP-CaM is recorded as “right shift”. Further, the “temperature-induced BRET increase” value on TRPV1-Luc/YFP-CaM (cells preincubated with inhibitor, temperature increased from 25° C. to 50° C.) was “no significant BRET increase”. For the same compound, on YFP-hTRPV1-rLuc [4], the “effect on the CAPS dose response curve” value was “right shift” and the “effect on the capsaicin dose-response curve” value is “right-shift”.

For the compound `Oc1cc2c(cc1O)CN(C(=S)NCCc1ccc(Cl)cc1)CCC2` [Capsazepine], the “effect on the CAPS dose response curve” value at TRPV1-Luc/YFP-CaM and at YFP-hTRPV1-rLuc [4] was “right shift” in each case. For the same compound, on YFP-hTRPV1-rLuc [4] (1 μM CPZ, medium heated from 25° C. to 50° C.), the “temperature where BRET signal started to decrease” value is 47 °C. The “effect on the capsaicin dose-response curve” value on YFP-hTRPV1-rLuc [4] is recorded as “right-shift”.

Regarding `NCCOB(c1ccccc1)c1ccccc1` [2-APB, 2-Aminoethyl diphenylborinate], the “evolution of the BRET signal after addition to the culture media” value on YFP-hTRPV3-rLuc is “increase in the BRET value within seconds”.

As to `CCCCCCCCC(=O)NCc1cc(OC)c(O)cc1I` [6 iodo-CAPS], at YFP-hTRPV1-rLuc [4] (setting [6]), the “temperature from which BRET signal decreased” value came out at 48 °C. Besides, the “ratio of net BRET as initially measured at 29.5° C.” value at YFP-hTRPV1-rLuc [4] (setting [7]) was found to be 0.28.
